# Test results as given in patent publication US20250049798A1, “WEE1 PROTEIN KINASE DEGRADATION AGENT AND USE THEREOF” (HANGZHOU GLUBIO PHARMACEUTICAL CO. LTD., priority 2021, published 2025).
# Read-outs that look alike come from different tables or passages of the source.
# How the values were obtained:
# [1] = biological target: HiBiT tagged Wee1 (Homo sapiens, UniProt P30291); experiment: Wee1 protein degradation assay (HiBiT assay); assay type: cell-based; conditions: for Dmax: maximum percentage of Wee1 degradation, read-out: HiBiT Wee1: Dmax
# HiBiT tagged Wee1, sequence (P30291 whole entry): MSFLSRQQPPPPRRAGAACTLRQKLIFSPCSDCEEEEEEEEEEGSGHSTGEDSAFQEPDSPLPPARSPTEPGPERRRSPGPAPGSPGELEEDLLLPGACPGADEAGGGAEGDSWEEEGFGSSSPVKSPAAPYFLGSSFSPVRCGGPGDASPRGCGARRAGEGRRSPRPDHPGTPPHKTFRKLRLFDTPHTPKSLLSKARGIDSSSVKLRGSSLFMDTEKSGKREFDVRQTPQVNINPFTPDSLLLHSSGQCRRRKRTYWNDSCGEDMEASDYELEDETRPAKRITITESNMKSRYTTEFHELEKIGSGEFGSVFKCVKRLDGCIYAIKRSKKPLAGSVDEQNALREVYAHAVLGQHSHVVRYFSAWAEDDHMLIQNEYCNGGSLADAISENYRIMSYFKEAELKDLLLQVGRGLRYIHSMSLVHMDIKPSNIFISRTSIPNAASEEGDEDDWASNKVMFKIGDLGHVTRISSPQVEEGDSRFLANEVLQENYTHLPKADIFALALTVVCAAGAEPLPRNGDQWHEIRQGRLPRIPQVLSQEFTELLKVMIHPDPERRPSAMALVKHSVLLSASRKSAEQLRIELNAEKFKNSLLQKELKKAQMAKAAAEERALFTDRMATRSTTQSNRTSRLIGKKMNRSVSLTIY
# [2] = tested on: NCI-H1048 cells; experiment: NCI-H1048 cell proliferation assay (CTG assay); assay type: cell-based; conditions: Homo sapiens, 120 hours, read-out: CTG cellular assay_H1048: IC50
# Procedure: NCI-H1048 Cell Proliferation Assay (CTG Assay) The following is an example of an assay that can be used to determine the anti-proliferative activity of Wee1 PROTACs in a small cell lung cancer cell line, NCI-H1048 (ATCC Cat #CRL-5853). This cell line was cultured in RPMI-1640 medium supplemented with 10% FBS. About 1,200 NCI-H1048 cells in 50 μL of culture medium were seeded into a 384-well plate (Cat #3764, Corning), pre-spotted with compounds using the Echo 650 liquid handler (Beckman). The dose-response-curve (DRC) typically has 10-points with a highest concentration at 10 μM, and half-log diluted to as low as 0.316 nM, plus a DMSO control. Assay plates were incubated at 37° C. with 5% CO2 for 120 hours. After that, 20 μL of the CellTiter-Glo (CTG) Luminescent Cell Viability Assay Reagent (Cat #G7573, Promega) was added to each well and incubated at room temperature for 30 minutes. Luminescence was then measured with Pherastar microplate reader (BMG Labtech). All percentage of cell growth inhibition curves were processed using Collaborative Drug Discovery Vault.
# Cell viability reads in compound-treated wells were normalized to that of DMSO control and expressed as Percent of Control (PoC, y). A four Parameter Logistic Model was used to determine the compound's EC50 and DC50, using the following equation: […]
# [3] = engineered HT-1080 cells, 20 hours
"DC50 [1, 3] [nM]","Dmax [1, 3] [%]",IC50 [2] [nM],Compound,"Dmax ([1]; HT-1080, […]) [%]"
< 100,> 75,≤ 25,C=CCn1c(=O)c2cnc(Nc3ccc(N4CCN(CC5CCN(c6ccc(NC7CCC(=O)NC7=O)cc6F)CC5)CC4)cc3)nc2n1-c1ccc(=O)n(C(C)C)n1 (stereo not shown) [Compound 158],–
< 100,> 75,≤ 25,C=CCn1c(=O)c2cnc(Nc3ccc(N4CCN(CC5CCN(c6ccc7c(N8CCC(=O)NC8=O)nn(C)c7c6)CC5)CC4)cc3)nc2n1-c1ccc2c(n1)[C@](C)(O)CC2 [Compound 115],–
< 100,50 to 75,25 to 100,C=CCn1c(=O)c2cnc(Nc3ccc(C4CCN(CC5CN(c6ccc7c(c6)C(=O)N(C6CCC(=O)NC6=O)C7=O)C5)CC4)cc3)nc2n1-c1cccc(C(C)(C)O)n1 (stereo not shown) [Compound 9],–
< 100,> 75,≤ 25,C=CCn1c(=O)c2cnc(Nc3ccc(N4CCN(C5CCN(c6ccc(NC7CCC(=O)NC7=O)cc6F)CC5)CC4)cc3)nc2n1-c1cccc(C(C)(C)O)n1 (stereo not shown) [Compound 93],–
< 100,> 75,25 to 100,C=CCn1c(=O)c2cnc(Nc3ccc(N4CCN(CC5CCN(c6ccc(NC7CCC(=O)NC7=O)cc6F)CC5)CC4)c(F)c3)nc2n1-c1cccc(C(C)(C)O)n1 (stereo not shown) [Compound 125],–
< 100,50 to 75,25 to 100,O=C1CCC(N2C(=O)c3cccc(NCCCN4CCN(c5ccc(Nc6ncc7c(=O)n(-c8c(Cl)cccc8Cl)c8nccn8c7n6)cc5)CC4)c3C2=O)C(=O)N1 (stereo not shown) [Compound 2],–
< 100,> 75,≤ 25,C=CCn1c(=O)c2cnc(Nc3ccc(N4CCC(N5CCC(c6ccc(NC7CCC(=O)NC7=O)cc6F)CC5)CC4)cc3)nc2n1-c1cccc(C(C)(C)O)n1 (stereo not shown) [Compound 82],–
< 100,50 to 75,≤ 25,C=CCn1c(=O)c2cnc(Nc3ccc(C4CCN(CC5CCN(c6cccc7c6n(C)c(=O)n7C6CCC(=O)NC6=O)CC5)CC4)cc3)nc2n1-c1ccc2c(n1)[C@@](O)(CC)CC2 (stereo partly shown) [Compound 108],–
< 100,> 75,≤ 25,C=CCn1c(=O)c2cnc(Nc3ccc(C4CCN(CC5CCN(c6ccc7c(N8CCC(=O)NC8=O)nn(C)c7c6)CC5)CC4)cc3)nc2n1-c1cccc(C(C)(C)O)n1 [Compound 104],–
> 1000,< 50,> 100,C=CCn1c(=O)c2cnc(Nc3ccc4c(c3)CN(CC3CN(c5ccc6c(c5)C(=O)N(C5CCC(=O)NC5=O)C6=O)C3)CC4)nc2n1-c1cccc(C(C)(C)O)n1 (stereo not shown) [Compound 6],–
< 100,50 to 75,≤ 25,C=CCn1c(=O)c2cnc(Nc3ccc(N4CCC(CN5CCC(c6ccc7c(c6)n(C)c(=O)n7C6CCC(=O)NC6=O)CC5)CC4)cc3)nc2n1-c1cccc(C(C)(C)O)n1 (stereo not shown) [Compound 52],–
< 100,> 75,≤ 25,C=CCn1c(=O)c2cnc(Nc3ccc(N4CCC(CN5CCN(c6ccc7c(C8CCC(=O)NC8=O)nn(C)c7c6)CC5)CC4)cc3)nc2n1-c1cccc(C(C)(C)O)n1 (stereo not shown) [Compound 106],–
< 100,–,≤ 25,C=CCn1c(=O)c2cnc(Nc3ccc(N4CCC(N5CC6(CN(c7ccc(NC8CCC(=O)NC8=O)cc7F)C6)C5)CC4)cc3)nc2n1-c1ccc2c(n1)[C@@](O)(CC)CC2 (stereo partly shown) [Compound 156],–
< 100,50 to 75,25 to 100,C=CCn1c(=O)c2cnc(Nc3ccc(N4CCN(CC5CCN(c6ccc7c(c6)C(=O)N(C6CCC(=O)NC6=O)C7=O)CC5)CC4)cc3)nc2n1-c1cccc(C(C)(C)O)n1 (stereo not shown) [Compound 8],–
< 100,50 to 75,≤ 25,C=CCn1c(=O)c2cnc(Nc3ccc(N4CCN(CC5CCN(c6ccc7c(N8CCC(=O)NC8=O)nn(C)c7c6)CC5)[C@H](C)C4)cc3)nc2n1-c1ccc2c(n1)[C@@](O)(CC)CC2 [Compound 174],–
< 100,> 75,≤ 25,"C=CCn1c(=O)c2cnc(Nc3ccc(N4CCC(CN5CCN(c6ccc(NC7CCC(=O)NC7=O)cc6F)CC5)CC4)cc3)nc2n1-c1cccc(C(C)(C)O)n1 (single isomer, unassigned) [Compound 100-A]",–
< 100,> 75,≤ 25,C=CCn1c(=O)c2cnc(Nc3ccc(N4CCC(CN5CCC(c6ccc(NC7CCC(=O)NC7=O)cc6F)CC5)CC4)cc3)nc2n1-c1cccc(C(C)(C)O)n1 (stereo not shown) [Compound 81],–
< 100,> 75,25 to 100,C=CCn1c(=O)c2cnc(Nc3ccc(N4CCN(CC5(F)CCN(c6ccc(NC7CCC(=O)NC7=O)cc6F)CC5)CC4)cc3)nc2n1-c1ccc2c(n1)[C@@](O)(CC)CC2 (stereo partly shown) [Compound 166],–

"DC50 [1, 3] [nM]","Dmax [1, 3] [%]",IC50 [2] [nM],Compound,"Dmax ([1]; HT-1080, […]) [%]"
< 100,50 to 75,–,C=CCn1c(=O)c2cnc(Nc3ccc(N4CCN(CC5CN(c6ccc7c(c6)C(=O)N(C6CCC(=O)NC6=O)C7=O)C5)CC4)c(C)c3)nc2n1-c1cccc(C(C)(C)O)n1 (stereo not shown) [Compound 12],–
< 100,50 to 75,–,C=CCn1c(=O)c2cnc(Nc3ccc(C4CCN(C[C@H]5CCN(c6ccc7c(c6)C(=O)N(C6CCC(=O)NC6=O)C7=O)C5)CC4)cc3)nc2n1-c1cccc(C(C)(C)O)n1 (stereo partly shown) [Compound 36],–
> 1000,< 50,–,Cc1cc(Nc2ncc3c(n2)N(C)CN(c2c(Cl)cccc2Cl)C3=O)ccc1N1CCC(CN2CCN(c3cccc4c3C(=O)N(C3CCC(=O)NC3=O)C4=O)CC2)CC1 (stereo not shown) [Compound 31],–
< 100,50 to 75,–,C=CCn1c(=O)c2cnc(Nc3ccc(N4CCC(N5CCN(c6cccc7c6n(C)c(=O)n7C6CCC(=O)NC6=O)CC5)CC4)cc3)nc2n1-c1cccc(C(C)(C)O)n1 (stereo not shown) [Compound 68],–
< 100,50 to 75,–,C=CCn1c(=O)c2cnc(Nc3ccc(C4CCN(C5CCN(c6cccc7c6n(C)c(=O)n7C6CCC(=O)NC6=O)CC5)CC4)cc3)nc2n1-c1cccc(C(C)(C)O)n1 (stereo not shown) [Compound 99],–
< 100,50 to 75,–,C=CCn1c(=O)c2cnc(Nc3ccc(N4CCN(C5CCN(c6ccc7c(c6)C(=O)N(C6CCC(=O)NC6=O)C7=O)CC5)CC4)cc3)nc2n1-c1cccc(C(C)(C)O)n1 (stereo not shown) [Compound 40],–
< 100,50 to 75,–,C=CCn1c(=O)c2cnc(Nc3ccc(N4CCN(CC5CCN(c6cccc7c(N8CCC(=O)NC8=O)nn(C)c67)CC5)CC4)cc3)nc2n1-c1cccc(C(C)(C)O)n1 [Compound 143],–
< 100,> 75,–,C=CCn1c(=O)c2cnc(Nc3ccc(N4CCC(CN5CCN(c6ccc(NC7CCC(=O)NC7=O)cc6F)CC5)CC4)c(C)c3)nc2n1-c1ccc2c(n1)[C@@](C)(O)CC2 (stereo partly shown) [Compound 133],–
> 1000,< 50,–,C=CCn1c(=O)c2cnc(Nc3ccc4c(c3)CN(CCCCc3cccc5c3CN(C3CCC(=O)NC3=O)C5=O)CC4)nc2n1-c1cccc(C(C)(C)O)n1 (stereo not shown) [Compound 49],–
< 100,50 to 75,–,C=CCn1c(=O)c2cnc(Nc3ccc(N4CCN(C[C@@H]5CCN(c6ccc7c(c6)C(=O)N(C6CCC(=O)NC6=O)C7=O)C5)CC4)cc3)nc2n1-c1cccc(C(C)(C)O)n1 (stereo partly shown) [Compound 38],–
< 100,> 75,–,C=CCn1c(=O)c2cnc(Nc3ccc(N4CCN(CC5CCN(c6ccc(NC7CCC(=O)NC7=O)cc6F)CC5)CC4)cc3)nc2n1-c1cccc(C(C)(C)C)n1 (stereo not shown) [Compound 204],–
> 1000,50 to 75,–,COc1ccc(C(=O)N2CCC(CCN3CCC(c4ccc(Nc5ncc6c(=O)n(-c7c(Cl)cccc7Cl)c7nccn7c6n5)cc4)CC3)CC2)cc1N1CCC(=O)NC1=O [Compound 28],–
100 to 1000,50 to 75,–,C=CCn1c(=O)c2cnc(Nc3ccc(N4CCC(CN5CCC(c6cccc(NC7CCC(=O)NC7=O)c6)CC5)CC4)cc3)nc2n1-c1cccc(C(C)(C)O)n1 (stereo not shown) [Compound 145],–
< 100,> 75,–,C=CCn1c(=O)c2cnc(Nc3ccc(N4CCN(CC5CCN(c6ccc(NC7CCC(=O)NC7=O)cc6Cl)CC5)CC4)cc3)nc2n1-c1cccc(C(C)(C)O)n1 (stereo not shown) [Compound 88],–
< 100,> 75,–,C=CCn1c(=O)c2cnc(Nc3ccc(N4CCC(N5CC6(CN(c7ccc(NC8CCC(=O)NC8=O)cc7F)C6)C5)CC4)cc3)nc2n1-c1ccc2c(n1)[C@@](O)(CC)CC2 (stereo partly shown) [Compound 154],–
< 100,50 to 75,–,C=CCn1c(=O)c2cnc(Nc3ccc(N4CCC(N5CC6(CN(c7ccc8c(N9CCC(=O)NC9=O)nn(C)c8c7)C6)C5)C(F)(F)C4)cc3)nc2n1-c1ccc2c(n1)[C@@](O)(CC)CC2 (stereo partly shown) [Compound 178],–
< 100,> 75,–,C=CCn1c(=O)c2cnc(Nc3ccc(C4CCN(CC5CCN(c6ccc(NC7CCC(=O)NC7=O)cc6C(F)(F)F)CC5)CC4)cc3)nc2n1-c1cccc(C(C)(C)O)n1 (stereo not shown) [Compound 107],–
> 1000,< 50,–,O=C1CCC(N2C(=O)c3ccc(N4CCC(CN5CCc6cc(Nc7ncc8c(=O)n(-c9c(Cl)cccc9Cl)c9nccn9c8n7)ccc6C5)CC4)cc3C2=O)C(=O)N1 (stereo not shown) [Compound 1],–

Compound,"DC50 [1, 3] [nM]","Dmax [1, 3] [%]",IC50 [2] [nM],"Dmax ([1]; HT-1080, […]) [%]"
Cc1cc(Nc2ncc3c(n2)N(C)CN(c2c(Cl)cccc2Cl)C3=O)ccc1N1CCC(CN2CCC(c3ccc4c(c3)C(=O)N(C3CCC(=O)NC3=O)C4=O)CC2)CC1 (stereo not shown) [Compound 33],> 1000,–,–,< 50
